Experimental data taken from US4859655A, “Urdamycin G and derivatives thereof, a process for their preparation and their use” (Hoechst Aktiengesellschaft, priority 1986, dated 1989).
In brackets after ≈: the same amount, converted by molar mass.

How the values were obtained:
[1] = test system: human and animal tumor cells; assay: tumor-inhibiting action in vitro; format: cell-based
solubility = format: physicochemical
[2] = stability in the solid state and as a solution; format: physicochemical; settings: pH range from 3 to 9, in particular from 5 to 8
L 1210 tumor cells = assay: Proliferation experiment (MTT, 72 hours); format: cell-based; settings: Mus musculus, L1210, L 1210, 72 hours, 4 experiments, deviation less than 15%
Protocol: L 1210 tumor cells at the exponential growth phase (5×10^3 cells/ml, Roswell Park Memorial Institute (RPMI) medium) were incubated in a microtiter plate with […] for a period of 72 hours at 37° C., 5% of CO2 and 95% relative atmospheric humidity and various concentrations of the test substances. After 65 hours, 50 μl of [3-(4,5-dimethylthiazol-2-yl)-2,5-diphenyltetrazolium bromide](MTT) (2.5 mg/ml of MTT in phosphate buffer saline (PBS)) were added. The MTT was reduced by living cells into the red, water-insoluble dyestuff formazan. After a further 7 hours, the supernatant medium was carefully removed. Formazan was dissolved by adding 100 μl of dimethyl sulfoxide per recess and subsequent shaking gently. The extinction of each recess was determined using a Multisan 340 CC photometer (Messrs. Flow) at 492 nm. The results were determined from the extinction ratio of cells with test substance to cells without test substance.
(§1) In all cases, the experiments were carried out 4 times. The deviation in the results was less than 15%.

[3] = test system: Gram-positive and Gram-negative bacteria; assay: plate-agar diffusion test in vitro; format: cell-based; settings: 10 μl/test circle, 6 mm diameter
L 1210 leukemia cells [4] = assay: Soft-agar assay, continuous incubation (Hamburger and Salmon); format: cell-based; settings: Mus musculus, L1210; L 1210, continuous incubation 5 to 7 days; 4 experiments, deviation less than 15%
Protocol: (§2) The experiment was carried out in accordance with the process of Hamburger and Salmon [New Engl. J. Med. 298, 1321-1327 (1978)]. The medium was replaced by McCoy 5A, and the number of cells was reduced to 5×10^2 cells/plate.
A continuous incubation of the cells with various concentrations of the test substance from Examples 4 and 5 was carried out. The compounds to be tested were applied to the agar plates before plating-out the cell cultures. The cell cultures then grew for 5 to 7 days in the incubator in an atmosphere of 5% of CO2, 20% of O2 and 95% relative atmospheric humidity at 37° C. After this time, the number of cell colonies having a diameter from 60 μm was determined (in %) relative to the number of cell colonies which had grown in comparison without test substance.
(§3) The IC50 value for continuous and 1-hour incubation was determined from the dose/action curve.
as §1

L 1210 leukemia cells [5] = assay: Soft-agar assay, 1-hour incubation (Hamburger and Salmon); format: cell-based; settings: Mus musculus, L1210; L 1210, 1-hour incubation; 4 experiments, deviation less than 15%
Protocol: as §2
In the test, the cells were incubated at 37° C. for 1 hour at various concentrations of the test substance. The cells were then washed twice with McCoy 5A solution (Flow catalog, Meckenheim, FRG) and subsequently applied to agar plates in accordance with the method of Hamburger and Salmon. The cells were subsequently cultivated as described above, and the number of cell colonies was determined (evaluation as in a).
as §3, §1

Row | IC50 (L 1210 leukemia cells [5]) [µg/mL] | SMILES | tumor-inhibiting action [1] | solubility (solubility; methanol, acetone, DMSO, dioxane and chloroform) | solubility (solubility; water and alkanes) | stability [2] | IC50 (L 1210 tumor cells) [µg/mL] | antibacterial action [3] | IC50 (L 1210 leukemia cells [4]) [µg/mL]
1 |  | CC1OC(OC2CC(c3ccc4c(c3O)C(=O)C3=C(C4=O)C4(OC5CCC(O)C(C)O5)C(=O)CC(C)(O)CC4(O)C=C3)OC(C)C2O)CCC1O (stereo not shown) [Urdamycin G] | tumor-inhibiting action | readily soluble | not in water and alkanes | stable | 3.5 (≈ 4.9 µM) | comes into effect both against Gram-positive and Gram-negative bacteria | 0.85 (≈ 1.19 µM)
2 | 0.065 (≈ 0.0736 µM) | CC(=O)Oc1c(C2CC(OC3CCC(OC(C)=O)C(C)O3)C(OC(C)=O)C(C)O2)ccc2c1C(=O)C1=C(C2=O)C2(OC3CCC(OC(C)=O)C(C)O3)C(=O)CC(C)(O)CC2(O)C=C1 (stereo not shown) [5',4A,4C,8-Tetra-O-acetyl-urdamycin G, 5',4A,4C,8-tetra-O-acetyl urdamycin G] |  |  |  |  | < 1 |  | 0.036 (≈ 0.0408 µM)
